Test results published in patent US11076595B2, “1-(n,n-disubstituted carbamoyl) 4-(substituted sulfonyl)triazolin-5-one derivative, 4-(n,n-disubstituted carbamoyl) 1-(substituted sulfonyl)triazolin-5-one derivative, and herbicide containing said derivative as active ingredient” (HOKKO CHEMICAL INDUSTRY CO., LTD., priority 2017, dated 2021).

Key:
Echinochloa crus-galli [1] = assay: Test Example 1: herbicidal effect test by soil treatment in paddy field; type: in vivo; settings: 120 g/10a, paddy soil treatment just after sowing, 14 days after treatment
In short: (§1)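 Weed suppression (%) was calculated at 14 days from mean plant dry weight relative to untreated pots, with duplicate pots per rate. The compound went into the flood water as a diluted emulsifiable concentrate (120 g a.i./10 are) immediately after sowing seeds 0–1 cm deep. Pots held ~3 cm water in a glasshouse.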

Lindernia pyxidaria [2] = assay: as above; type: in vivo; settings: 120 g/10a, paddy soil treatment just after sowing, 14 days after treatment
In short: as §1

Monochoria vaginalis [3] = assay: as above; type: in vivo; settings: 120 g/10a, paddy soil treatment just after sowing, 14 days after treatment
In short: as §1

Scirpus juncoides [4] = assay: as above; type: in vivo; settings: 120 g/10a, paddy soil treatment just after sowing, 14 days after treatment
In short: as §1

Echinochloa crus-galli [5] = assay: Test Example 2: herbicidal effect test by treatment during growing period in paddy field; type: in vivo; settings: treatment 7 days after sowing, 120 g/10a, evaluated 14 days after treatment
In short: (§2)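 Paddy soil in flooded pots (~3 cm water), 30 seeds per species sown 0–1 cm deep, greenhouse. Emulsifiable concentrate diluted in water and dripped into the water 7 days after sowing at 120 g a.i. per 10 are. Suppression (%) from dry weight vs untreated, 14 days post-treatment, two replicates.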

Lindernia pyxidaria [6] = assay: as above; type: in vivo; settings: treatment 7 days after sowing, 120 g/10a, evaluated 14 days after treatment
In short: as §2

Monochoria vaginalis [7] = assay: as above; type: in vivo; settings: treatment 7 days after sowing, 120 g/10a, evaluated 14 days after treatment
In short: as §2

Scirpus juncoides [8] = assay: as above; type: in vivo; settings: treatment 7 days after sowing, 120 g/10a, evaluated 14 days after treatment
In short: as §2

Amaranthus viridis [9] = assay: Test Example 3: herbicidal effect test by soil treatment in upland field; type: in vivo; settings: upland field soil treatment 1 day after sowing; 120 g/10a; evaluated 14 days after treatment
In short: (§3)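 Pots of alluvial field soil sown with 20 seeds per weed species; one day later emulsifiable concentrate diluted in water and sprayed on soil surface at 100 L per 10 are, 120 g active ingredient per 10 are. Suppression rate (%) from dry weight versus untreated plots after 14 days, two replicates.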

Chenopodium album [10] = assay: as above; type: in vivo; settings: upland field soil treatment 1 day after sowing; 120 g/10a; evaluated 14 days after treatment
In short: as §3

Echinochloa crus-galli [11] = assay: as above; type: in vivo; settings: upland field soil treatment 1 day after sowing; 120 g/10a; evaluated 14 days after treatment
In short: as §3

crabgrass [12] = assay: as above; type: in vivo; settings: upland field soil treatment 1 day after sowing; 120 g/10a; evaluated 14 days after treatment
In short: as §3

Amaranthus viridis [13] = assay: Test Example 4: herbicidal effect test by foliage treatment in upland field; type: in vivo; settings: upland field foliage treatment 7 days after sowing; 120 g/10a; evaluated 14 days after treatment
In short: (§4)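 Suppression rate (%) derives from mean plant dry weight in treated versus untreated plots, measured 14 days after spraying, with two replications per plot. The emulsifiable concentrate was applied 7 days after sowing at 120 g active ingredient per 10 are.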

Chenopodium album [14] = assay: as above; type: in vivo; settings: upland field foliage treatment 7 days after sowing; 120 g/10a; evaluated 14 days after treatment
In short: as §4

Echinochloa crus-galli [15] = assay: as above; type: in vivo; settings: upland field foliage treatment 7 days after sowing; 120 g/10a; evaluated 14 days after treatment
In short: as §4

crabgrass [16] = assay: as above; type: in vivo; settings: upland field foliage treatment 7 days after sowing; 120 g/10a; evaluated 14 days after treatment
In short: as §4

| Compound | melting point | weed suppression rate, Echinochloa crus-galli (Echinochloa crus-galli [1]) | weed suppression rate, Lindemia pyxidaria (Lindernia pyxidaria [2]) | weed suppression rate, Monochoria vaginalis (Monochoria vaginalis [3]) | weed suppression rate, Scirpus juncoides (Scirpus juncoides [4]) | weed suppression rate, Echinochloa crus-galli (Echinochloa crus-galli [5]) | weed suppression rate, Lindemia pyxidaria (Lindernia pyxidaria [6]) | weed suppression rate, Monochoria vaginalis (Monochoria vaginalis [7]) | weed suppression rate, Scirpus juncoides (Scirpus juncoides [8]) | herbicidal effect (weed suppression rate), Amaranthus viridis (Amaranthus viridis [9]) | herbicidal effect (weed suppression rate), Chenopodium album (Chenopodium album [10]) | herbicidal effect (weed suppression rate), Echinochloa crus-galli (Echinochloa crus-galli [11]) | herbicidal effect (weed suppression rate), Crabgrass (crabgrass [12]) | herbicidal effect (weed suppression rate), Amaranthus viridis (Amaranthus viridis [13]) | herbicidal effect (weed suppression rate), Chenopodium album (Chenopodium album [14]) | herbicidal effect (weed suppression rate), Echinochloa crus-galli (Echinochloa crus-galli [15]) | herbicidal effect (weed suppression rate), Crabgrass (crabgrass [16]) |
| --- | --- | --- | --- | --- | --- | --- | --- | --- | --- | --- | --- | --- | --- | --- | --- | --- | --- |
| CCN(CC)C(=O)n1ncn(S(C)(=O)=O)c1=O [Compound 1-1] | 81.7 to 85.3 °C | – | – | – | – | – | – | – | – | – | – | – | – | – | – | – | – |
| Cc1cc(C)c(S(=O)(=O)n2cnn(C(=O)N(c3ccc(F)c(F)c3F)C(C)C)c2=O)c(C)c1 [Compound 1-899] | – | 100% | 100% | 90% | 100% | 100% | 80% | 100% | 100% | 90% | 60% | 80% | 80% | 100% | 80% | 100% | 100% |
| CCN(CC)C(=O)n1ncn(S(=O)(=O)Cc2ccccc2)c1=O [Compound 1-968] | 115.8 to 118.6 °C | – | – | – | – | – | – | – | – | – | – | – | – | – | – | – | – |
| CC(C)N(C(=O)n1ncn(S(=O)(=O)N(C)C)c1=O)c1ccc(F)cc1 [Compound 1-1095] | – | 90% | 80% | 80% | 90% | 90% | 80% | 80% | 90% | 90% | 80% | 80% | 90% | 90% | 80% | 80% | 90% |
| CC(C)N(C(=O)n1ncn(S(=O)(=O)N(C)C)c1=O)c1ccc(F)cc1F [Compound 1-1103] | – | 90% | 80% | 80% | 90% | 90% | 80% | 80% | 90% | 60% | 60% | 100% | 100% | 90% | 80% | 80% | 90% |
| Cc1ccc(N(C(=O)n2ncn(S(=O)(=O)N(C)C)c2=O)C(C)C)c(F)c1 [Compound 1-1117] | – | 90% | 80% | 80% | 90% | 90% | 80% | 80% | 90% | 90% | 80% | 80% | 90% | 90% | 80% | 80% | 90% |
